Experimental data as given in patent US12384800B2, “Antitumoral compounds” (priority 2017, dated 2025).

Assays:
HT1080 tumors = assay: Human fibrosarcoma xenograft, total diameter (tumor + leg)
[1] = MTD (Maximum Tolerated Dose) determination, single iv administration; format: in vivo; conditions: mice; iv/SD (single dose); monitored up to 14 days
Source text: (§1) Female CD-1 or Athymic Nude-Fox1 nu/nu mice (Envigo) were utilized for all experiments. […] Animals were acclimated for five days prior to being individually tattoo-identified. Animal protocols were reviewed and approved according to the regional Institutional Animal Care and Use Committees.
(§2) Mice were randomly allocated into experimental groups and intravenously administered, once for the MTD (Maximum Tolerated Dose) determination or one administration a week during three consecutive weeks, for the MTMD (Maximum Tolerated Multiple Dose) determination study. The animals were administered with white formulation or with compound dissolved in the experimental formulation at different concentrations. The volume administered was always […]. Once administered, animals were monitored for clinical signs of systemic toxicity, changes in body weight and mortality up to 14 days after the administration.

[2] = MTMD (Maximum Tolerated Multiple Dose) determination, iv weekly x 3; format: in vivo; conditions: mice; iv/Q7d × 3
Source text: as §1, §2

[3] = tested on: PSN1 cells (pancreas adenocarcinoma); assay: cells; conditions: PSN1, SRB; for GI50: 72 hours treatment; for TGI: total cell growth inhibition; for TGI / CC50: 72 hours; for CC50: read-out: LC50, 50% net cell killing
Source text: (§3) The aim of this assay is to evaluate the in vitro cytostatic (ability to delay or arrest tumor cell growth) or cytotoxic (ability to kill tumor cells) activity of the samples being tested.
(§4) A colorimetric assay, using sulforhodamine B (SRB) reaction has been adapted to provide a quantitative measurement of cell growth and viability (following the technique described by Skehan et al. J. Natl. Cancer Inst. 1990, 82, 1107-1112). Another colorimetric assay based on 3-(4,5-Dimethylthiazol-2-yl)-2,5-diphenyltetrazolium bromide (MTT) reduction to a purple formazan has been also used to assess the antiproliferative activity (following the technique described by Mosmann et al. J. Immunol. Meth. 1983, 65, 55-63).
(§5) These forms of assays employ 96-well cell culture microplates following the standards of the American National Standards Institute and the Society for Laboratory Automation and Screening (ANSI SLAS 1-2004 (R2012) Oct. 12, 2011. All the cell lines used in this study were obtained from the American Type Culture Collection (ATCC) and derive from different types of human cancer.
(§6) A549, HT29, MDA-MB-231 and PSN1 cells were maintained in Dulbecco's Modified Eagle Medium (DMEM) while PC-3 and 22Rv1 cells were maintained in Roswell Park Memorial Institute Medium (RPMI). All cell lines were supplemented with 10% Fetal Bovine Serum (FBS), 2 mM L-glutamine, 100 U/mL penicillin, and 100 […] at 37° C., 5% CO2 and 98% humidity. For the experiments, cells were harvested from subconfluent cultures using trypsinization and resuspended in fresh medium before counting and plating.
(§7) A549, HT29, MDA-MB-231 and PSN1 cells were seeded in 96 well microtiter plates, at 5000 cells per well in aliquots of 150 μL, and allowed to attach to the plate surface for 18 hours (overnight) in drug free medium. After that, one control (untreated) plate of each cell line was fixed (as described below) and used for time zero reference value. Culture plates were then treated with test compounds (50 μL aliquots of 4× stock solutions in complete culture medium plus 4% DMSO) using ten ⅖ serial dilutions (concentrations ranging from 10 to 0.003 μg/mL) and triplicate cultures (1% final concentration in DMSO). After 72 hours treatment, the antitumor effect was measured by using the SRB methodology: Briefly, cells were washed twice with PBS, fixed for 15 min in 1% glutaraldehyde solution at room temperature, rinsed twice in PBS, and stained in 0.4% SRB solution for 30 min at room temperature. Cells were then rinsed several times with 1% acetic acid solution and air-dried at room temperature.
(§8) Effects on cell growth and survival were estimated by applying the NCI algorithm (Boyd M R and Paull K D. Drug Dev. Res. 1995, 34, 91-104). The values obtained in triplicate cultures were fitted by nonlinear regression to a four-parameters logistic curve by nonlinear regression analysis.

[4] = tested on: A549 cells (lung carcinoma, NSCLC); assay: cells; conditions: A549, SRB; for GI50: 72 hours treatment; for TGI: total cell growth inhibition; for TGI / CC50: 72 hours; for CC50: read-out: LC50, 50% net cell killing
Source text: as §3, §4, §5, §6, §7, §8

[5] = tested on: MDA-MB-231 cells (breast adenocarcinoma); assay: cells; conditions: MDA-MB-231, SRB; for GI50: 72 hours treatment; for TGI: total cell growth inhibition; for TGI / CC50: 72 hours; for CC50: read-out: LC50, 50% net cell killing
Source text: as §3, §4, §5, §6, §7, §8

[6] = tested on: HT29 cells (colorectal adenocarcinoma); assay: cells; conditions: HT29, SRB; for GI50: 72 hours treatment; for TGI: total cell growth inhibition; for TGI / CC50: 72 hours; for CC50: read-out: LC50, 50% net cell killing
Source text: as §3, §4, §5, §6, §7, §8

[7] = Day 0.0, iv Days 0, 7 and 14, compound C 3.0 mg/kg, 4-S […], 12-S […]
[8] = Day 2.0, iv Days 0, 7 and 14, compound C 3.0 mg/kg, 4-S […], 12-S […]
[9] = Day 5.0, iv Days 0, 7 and 14, compound C 3.0 mg/kg, 4-S […], 12-S […]
[10] = Day 7.0, iv Days 0, 7 and 14, compound C 3.0 mg/kg, 4-S […], 12-S […]
[11] = Day 9.0, iv Days 0, 7 and 14, compound C 3.0 mg/kg, 4-S […], 12-S […]
[12] = Day 12.0, iv Days 0, 7 and 14, compound C 3.0 mg/kg, 4-S […], 12-S […]
[13] = Day 14.0, iv Days 0, 7 and 14, compound C 3.0 mg/kg, 4-S […], 12-S […]
[14] = Day 16.0, iv Days 0, 7 and 14, compound C 3.0 mg/kg, 4-S […], 12-S […]
[15] = Day 19.0, iv Days 0, 7 and 14, compound C 3.0 mg/kg, 4-S […], 12-S […]
[16] = Day 21.0, iv Days 0, 7 and 14, compound C 3.0 mg/kg, 4-S […], 12-S […]
[17] = Day 23.0, iv Days 0, 7 and 14, compound C 3.0 mg/kg, 4-S […], 12-S […]

SMILES: COc1c(C)cc2c(c1O)[C@@H]1[C@@H]3[C@@H]4SC[C@]5(N[C@H](CO)Cc6c5[nH]c5ccccc65)C(=O)OC[C@@H](c5c6c(c(C)c(OC(C)=O)c54)OCO6)N3[C@@H](O)[C@H](C2)N1C [Compound 4-S]
- Total diameter (tumor + leg) (HT1080 tumors; [7]): 7.5 mm
- Total diameter (tumor + leg) (HT1080 tumors; [8]): 7.7 mm
- Total diameter (tumor + leg) (HT1080 tumors; [9]): 8.3 mm
- Total diameter (tumor + leg) (HT1080 tumors; [10]): 8.8 mm
- Total diameter (tumor + leg) (HT1080 tumors; [11]): 8.4 mm
- Total diameter (tumor + leg) (HT1080 tumors; [12]): 8.4 mm
- Total diameter (tumor + leg) (HT1080 tumors; [13]): 9.6 mm
- Total diameter (tumor + leg) (HT1080 tumors; [14]): 10.0 mm
- Total diameter (tumor + leg) (HT1080 tumors; [15]): 10.4 mm
- Total diameter (tumor + leg) (HT1080 tumors; [16]): 12.1 mm
- Total diameter (tumor + leg) (HT1080 tumors; [17]): 12.7 mm
- MTD [1]: 1.0 mg/kg

SMILES: COc1c(C)cc2c(c1O)[C@@H]1[C@@H]3[C@@H]4SC[C@]5(N[C@@H](C)Cc6c5[nH]c5ccccc65)C(=O)OC[C@@H](c5c6c(c(C)c(OC(C)=O)c54)OCO6)N3[C@@H](O)[C@H](C2)N1C [Compound D]
- MTMD [2]: 0.5 mg/kg
- GI50 [3]: 20.8 nM
- TGI [3]: 2.21E−08 Molar
- CC50 [3]: 24.7 nM
- GI50 [4]: 12.5 nM
- TGI [4]: 2.86E−08 Molar
- CC50 [4]: > 130 nM
- GI50 [5]: 9.88 nM
- TGI [5]: 1.95E−08 Molar
- CC50 [5]: 53.3 nM
- GI50 [6]: 10.3 nM
- TGI [6]: 2.34E−08 Molar
- CC50 [6]: > 130 nM
- Total diameter (tumor + leg) (HT1080 tumors; Day 0): 7.5 mm
- Total diameter (tumor + leg) (HT1080 tumors; Day 0, iv Days 0, 7 and 14, PM01183 […], Compound D 0.5 mg/kg): 7.7 mm
- Total diameter (tumor + leg) (HT1080 tumors; Day 2): 8.2 mm
- Total diameter (tumor + leg) (HT1080 tumors; Day 2, iv Days 0, 7 and 14, PM01183 […], Compound D 0.5 mg/kg): 9.5 mm
- Total diameter (tumor + leg) (HT1080 tumors; Day 5): 7.5 mm
- Total diameter (tumor + leg) (HT1080 tumors; Day 5, iv Days 0, 7 and 14, PM01183 […], Compound D 0.5 mg/kg): 8.8 mm
- Total diameter (tumor + leg) (HT1080 tumors; Day 7): 7.4 mm
- Total diameter (tumor + leg) (HT1080 tumors; Day 7, iv Days 0, 7 and 14, PM01183 […], Compound D 0.5 mg/kg): 8.7 mm
- Total diameter (tumor + leg) (HT1080 tumors; Day 9): 8.1 mm
- Total diameter (tumor + leg) (HT1080 tumors; Day 9, iv Days 0, 7 and 14, PM01183 […], Compound D 0.5 mg/kg): 9.4 mm
- Total diameter (tumor + leg) (HT1080 tumors; Day 12): 7.9 mm
- Total diameter (tumor + leg) (HT1080 tumors; Day 12, iv Days 0, 7 and 14, PM01183 […], Compound D 0.5 mg/kg): 9.4 mm
- Total diameter (tumor + leg) (HT1080 tumors; Day 14): 7.7 mm
- Total diameter (tumor + leg) (HT1080 tumors; Day 14, iv Days 0, 7 and 14, PM01183 […], Compound D 0.5 mg/kg): 10.1 mm
- Total diameter (tumor + leg) (HT1080 tumors; Day 16): 8.8 mm
- Total diameter (tumor + leg) (HT1080 tumors; Day 16, iv Days 0, 7 and 14, PM01183 […], Compound D 0.5 mg/kg): 10.9 mm
- Total diameter (tumor + leg) (HT1080 tumors; Day 19): 10.2 mm
- Total diameter (tumor + leg) (HT1080 tumors; Day 19, iv Days 0, 7 and 14, PM01183 […], Compound D 0.5 mg/kg): 11.2 mm
- Total diameter (tumor + leg) (HT1080 tumors; Day 21): 11.2 mm
- Total diameter (tumor + leg) (HT1080 tumors; Day 21, iv Days 0, 7 and 14, PM01183 […], Compound D 0.5 mg/kg): 12.1 mm
- Total diameter (tumor + leg) (HT1080 tumors; Day 23): 12.2 mm
- Total diameter (tumor + leg) (HT1080 tumors; Day 23, iv Days 0, 7 and 14, Compound D 0.5 mg/kg): 13.0 mm
- Total diameter (tumor + leg) (HT1080 tumors; Day 26, iv Days 0, 7 and 14, Compound D 0.5 mg/kg): 15.0 mm
- Total diameter (tumor + leg) (HT1080 tumors; Day 27): 13.2 mm
- Total diameter (tumor + leg) (HT1080 tumors; Day 28, iv Days 0, 7 and 14, Compound D 0.5 mg/kg): 18.0 mm
- Total diameter (tumor + leg) (HT1080 tumors; Day 30): 14.6 mm
- Total diameter (tumor + leg) (HT1080 tumors; Day 33): 16.3 mm
- Total diameter (tumor + leg) (HT1080 tumors; Day 35): 18.0 mm

SMILES: COc1c(C)cc2c(c1O)[C@@H]1[C@@H]3[C@@H]4SC[C@]5(N[C@H](C)Cc6c5[nH]c5ccccc65)C(=O)OC[C@@H](c5c6c(c(C)c(OC(C)=O)c54)OCO6)N3[C@@H](O)[C@H](C2)N1C [Compound C]
- MTMD [2]: 3.0 mg/kg
- GI50 [3]: 36.4 nM
- TGI [3]: 4.42E−08 Molar
- CC50 [3]: 65 nM
- GI50 [4]: 27.3 nM
- TGI [4]: 6.63E−08 Molar
- CC50 [4]: > 130 nM
- GI50 [5]: 26 nM
- TGI [5]: 5.46E−08 Molar
- CC50 [5]: > 130 nM
- GI50 [6]: 20.8 nM
- TGI [6]: 2.34E−08 Molar
- CC50 [6]: > 130 nM
- Total diameter (tumor + leg) (HT1080 tumors; Day 0): 7.5 mm
- Total diameter (tumor + leg) (HT1080 tumors; [7]): 7.5 mm
- Total diameter (tumor + leg) (HT1080 tumors; Day 2): 8.8 mm
- Total diameter (tumor + leg) (HT1080 tumors; [8]): 8.8 mm
- Total diameter (tumor + leg) (HT1080 tumors; Day 5): 9.0 mm
- Total diameter (tumor + leg) (HT1080 tumors; [9]): 9.0 mm
- Total diameter (tumor + leg) (HT1080 tumors; Day 7): 9.6 mm
- Total diameter (tumor + leg) (HT1080 tumors; [10]): 9.6 mm
- Total diameter (tumor + leg) (HT1080 tumors; Day 9): 10.2 mm
- Total diameter (tumor + leg) (HT1080 tumors; [11]): 10.2 mm
- Total diameter (tumor + leg) (HT1080 tumors; Day 12): 10.2 mm
- Total diameter (tumor + leg) (HT1080 tumors; [12]): 10.2 mm
- Total diameter (tumor + leg) (HT1080 tumors; Day 14): 11.2 mm
- Total diameter (tumor + leg) (HT1080 tumors; [13]): 11.2 mm
- Total diameter (tumor + leg) (HT1080 tumors; Day 16): 12.4 mm
- Total diameter (tumor + leg) (HT1080 tumors; [14]): 12.4 mm
- Total diameter (tumor + leg) (HT1080 tumors; Day 19): 13.3 mm
- Total diameter (tumor + leg) (HT1080 tumors; [15]): 13.3 mm
- Total diameter (tumor + leg) (HT1080 tumors; Day 21): 15.2 mm
- Total diameter (tumor + leg) (HT1080 tumors; [16]): 15.2 mm
- Total diameter (tumor + leg) (HT1080 tumors; Day 23): 18.0 mm
- Total diameter (tumor + leg) (HT1080 tumors; [17]): 18.0 mm
